Reference: ChEMBL document CHEMBL1158309, “Callyspongins A and B: Novel Polyacetylene Sulfates from the Marine Sponge Callyspongia truncata That Inhibit Fertilization of Starfish Gametes” (J Nat Prod, 1996)
Values after ≈ are worked out from the molar mass of the structure shown. Active and inactive are the calls of the source. The calls are words filed in the database; no cut-off is given here.

Tests used:
[1] = Antifertilization activity in Asterias amurensis oocyte assessed as inhibition of 1-methyladenine-induced oocyte maturation at 100 uM; type: functional, cell-based
[2] = Antifertilization activity in Asterias amurensis sperm assessed as inhibition of sperm motility after 30 mins; type: functional, cell-based
[3] = Toxicity against Asterias amurensis embryos lysed in sea water at 100 uM; design: species or system Embryo; settings: buffer
[4] = Toxicity against Asterias amurensis egg in sea water at 100 uM; settings: buffer
[5] = Toxicity against Asterias amurensis sperm in sea water at 100 uM; type: cell-based
[6] = Antifertilization activity in Asterias amurensis egg assessed as inhibition of egg activation after 30 mins; type: functional
[7] = Antifertilization activity in Asterias amurensis fertilized egg assessed as inhibition of blastula development at 100 uM; type: functional

Row | SMILES | Activity [1] | MIC [2] [µM] | Activity [3] | Activity [4] | Activity [5] | MIC [6] [µM] | Activity [7]
1 | C#C/C=C\CCCC/C=C\C#CC#CCCCC#CC#C[C@@H](O)CO [SIPHONODIOL] | inactive | 13 (≈ 4.32 µg/mL) | Toxic | Toxic | Toxic | > 200 | –
2 | C#C/C=C\CCCC/C=C\C#CC#CCCCC#CC#C[C@H](COS(=O)(=O)O)OS(=O)(=O)O | inactive | 50 (≈ 24.6 µg/mL) | – | – | – | 6.3 (≈ 3.1 µg/mL) | inactive
3 | C#C/C=C\CCCC/C=C\C#CC#CCCCC#CC#C[C@@H](O)COS(=O)(=O)O | inactive | 100 (≈ 41.3 µg/mL) | – | – | – | 50 (≈ 20.6 µg/mL) | inactive
